According to ChEMBL document CHEMBL3779779, “Discovery of non-peptide small molecular CXCR4 antagonists as anti-HIV agents: Recent advances and future opportunities” (Eur J Med Chem, 2016):

What was measured:
[1] = system: Human immunodeficiency virus 1; assay: Antiviral activity against HIV1 3B infected in human MT4 cells assessed as reduction in virus-induced cytopathic effect after 5 days by MTT assay; format: functional, organism-based; conditions: Human immunodeficiency virus 1, 3B, MT4, 120 h
[2] = Selectivity index, ratio of CC50 for human MT4 cells to EC50 for HIV1 3B infected in human MT4 cells; format: toxicity, cell-based; conditions: read-out: Ratio CC50/EC50
[3] = target: C-X-C chemokine receptor type 4 (Homo sapiens, UniProt P61073); assay: Displacement of [125I]SDF-1 from human CXCR4 expressed in HEK293 cell membrane; format: cell membranes
[4] = system: Human immunodeficiency virus; assay: Antiviral activity against HIV LAV Clade B infected in human MT4 cells assessed as inhibition of syncytia formation preincubated with cells for 1 hr followed by viral infection […] by inverted optical microscopic analysis; format: functional, organism-based; conditions: Human immunodeficiency virus 1, LAV Clade B
[5] = Selectivity index, ratio of CC50 for human MT4 cells to EC50 for HIV LAV Clade B infected in human MT4 cells; format: toxicity, cell-based; conditions: read-out: Ratio CC50/EC50
[6] = system: Human immunodeficiency virus 1; assay: Antiviral activity against HIV1 clinical isolate R5/X4 by cell based assay; format: functional, organism-based; conditions: Human immunodeficiency virus 1, isolate R5/X4
[7] = system: Human immunodeficiency virus 1; assay: Antiviral activity against HIV1 clinical isolate R5 by cell based assay; format: functional, organism-based; conditions: Human immunodeficiency virus 1, isolate R5
[8] = system: Human immunodeficiency virus 1; assay: Antiviral activity against HIV1 clinical isolate X4 by cell based assay; format: functional, organism-based; conditions: Human immunodeficiency virus 1, isolate X4
[9] = system: Human immunodeficiency virus 1; assay: Antiviral activity against HIV1 NL4-3 clinical isolate X4 infected in human MT4 cells assessed as reduction in virus-induced cytopathic effect after 5 days by MTT assay; format: functional, organism-based; conditions: Human immunodeficiency virus 1, NL4-3 isolate X4, MT4, 120 h
[10] = system: Human immunodeficiency virus 1; assay: Antiviral activity against HIV1 infected in human MT4 cells assessed as reduction in virus-induced cytopathic effect after 4 to 5 days by MTS assay; format: functional, organism-based; conditions: Human immunodeficiency virus 1, MT4
[11] = Tmax in Swiss Webster mouse plasma at 25 mg/kg, sc by LC-MS/MS analysis; format: ADME, organism-based
[12] = Elimination half life in dog plasma at 0.41 mg/kg, iv and 0.41 to 2.05 mg/kg, sc by LC-MS/MS analysis; format: ADME, organism-based, Canis lupus familiaris; conditions: read-out: beta t1/2 (converted)
[13] = system: Human immunodeficiency virus 2; assay: Antiviral activity against HIV2 ROD infected in human MT4 cells assessed as reduction in virus-induced cytopathic effect after 5 days by MTT assay; conditions: Human immunodeficiency virus 2, ISOLATE ROD, MT4, 120 h

Sequence of C-X-C chemokine receptor type 4 (P61073 whole entry): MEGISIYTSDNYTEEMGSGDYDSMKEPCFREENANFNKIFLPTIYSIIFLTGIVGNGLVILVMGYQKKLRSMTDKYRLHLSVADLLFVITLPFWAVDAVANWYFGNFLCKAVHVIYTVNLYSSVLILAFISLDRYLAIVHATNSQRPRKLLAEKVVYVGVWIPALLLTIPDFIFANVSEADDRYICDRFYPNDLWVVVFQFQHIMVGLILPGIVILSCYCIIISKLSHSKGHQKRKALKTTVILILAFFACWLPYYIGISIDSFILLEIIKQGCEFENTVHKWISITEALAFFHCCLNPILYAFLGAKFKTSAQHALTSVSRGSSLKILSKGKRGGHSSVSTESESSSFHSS

SMILES: c1cc(CN2CCCSCCSCCCNCC2)ccc1CN1CCCSCCSCCCNCC1
- EC50 [1]: > 6800 nM

SMILES: c1cc(CN2CCCOCCOCCCNCC2)ccc1CN1CCCOCCOCCCNCC1
- EC50 [1]: > 363000 nM

SMILES: C1CNCCNCCCN[C@H]([C@@H]2CNCCCNCCNCCCN2)CNC1
- EC50 [1]: 100 nM
- selectivity ratio [2]: > 1000

SMILES: C1CNCCNCCCN(CCCN2CCCNCCNCCCNCC2)CCNC1
- EC50 [1]: 248 nM
- selectivity ratio [2]: > 2500

SMILES: c1ccc2c(NC3CCNCC3)nc(NCc3ccc(CNCCCNC4CCCCC4)cc3)nc2c1
- EC50 [3]: 68.4 nM

SMILES: Cc1cn([C@H]2C[C@H](N=[N+]=[N-])[C@@H](COC(=O)CCCCN3CCCN(Cc4ccc(CN5CCCNCCNCCCNCC5)cc4)CCNCCCNCC3)O2)c(=O)[nH]c1=O
- EC50 [4]: 5 nM
- selectivity ratio [5]: 15000

SMILES: c1cc(CN2CCCNCCOCCCNCC2)ccc1CN1CCCNCCOCCCNCC1
- EC50 [1]: 4500 nM

SMILES: Cc1cn([C@H]2C[C@H](N=[N+]=[N-])[C@@H](COC(=O)CCCCN3CCCNCCNCCCNCC3)O2)c(=O)[nH]c1=O
- EC50 [4]: 10 nM

SMILES: CC(C)CN(CCC[C@H](NC(=O)c1ccc(CNCc2ncc[nH]2)cc1)C(=O)N[C@@H](C)c1cccc2ccccc12)CC(C)C
- EC50 [1]: 6.7 nM

SMILES: Cc1cn([C@H]2C[C@H](N=[N+]=[N-])[C@@H](COC(=O)CCCCN3CCCN(Cc4ccc(CN5CCCN(C(=O)OC(C)(C)C)CCN(C(=O)OC(C)(C)C)CCCN(C(=O)OC(C)(C)C)CC5)cc4)CCN(C(=O)OC(C)(C)C)CCCN(C(=O)OC(C)(C)C)CC3)O2)c(=O)[nH]c1=O
- EC50 [4]: 5 nM
- selectivity ratio [5]: 1000

SMILES: c1cc(CN2CCCNCCCCCCNCC2)ccc1CN1CCCNCCCCCCNCC1
- EC50 [1]: 9600 nM

SMILES: Clc1cc(CN2CCCNCCNCCCNCC2)cc(Cl)n1
- EC50 [6]: 1200 nM
- EC50 [7]: 1200 nM
- EC50 [8]: 1200 nM

SMILES: CCCN(CCC)CCCCNC(=O)c1ccc(CN(Cc2ncc[nH]2)Cc2ncc[nH]2)cc1
- EC50 [1]: 4 nM

SMILES: Cn1c(CN(CCN2CCCCC2)CC2CCCN(C3CCCC3)C2)nc2ccccc21 (centres undefined)
- EC50 [9]: 600 nM

SMILES: c1ccc(CNCc2ccc(CN3CCCNCCNCCCNCC3)cc2)nc1
- EC50 [10]: 1 nM
- Tmax [11]: 15 min
- half-life [12]: 93.6 min

SMILES: c1cc(CN2CCCNCCNCCCNCC2)ccc1CN1CCCNCCNCCCNCC1 [PLERIXAFOR]
- EC50 [13]: 2 nM
